Reference: paper PMC4632735, “Ferulic Acid Exerts Anti-Angiogenic and Anti-Tumor Activity by Targeting Fibroblast Growth Factor Receptor 1-Mediated Angiogenesis” (International Journal of Molecular Sciences, 2015)

Tests used:
FGFR1 = molecular target: T1, FGFR1 (Homo sapiens, UniProt P11362); test: FRET-based in vitro kinase assay (Z'-LYTE); radiometric kinase panel gave […] inhibition at […]; assay type: biochemical
T1 construct: kinase domain

FGFR2 = FGFR2 (Homo sapiens, UniProt P21802); test: in vitro kinase assay; radiometric kinase panel gave […] inhibition at […]; assay type: biochemical
Chain of FGFR2 (P21802 22-821): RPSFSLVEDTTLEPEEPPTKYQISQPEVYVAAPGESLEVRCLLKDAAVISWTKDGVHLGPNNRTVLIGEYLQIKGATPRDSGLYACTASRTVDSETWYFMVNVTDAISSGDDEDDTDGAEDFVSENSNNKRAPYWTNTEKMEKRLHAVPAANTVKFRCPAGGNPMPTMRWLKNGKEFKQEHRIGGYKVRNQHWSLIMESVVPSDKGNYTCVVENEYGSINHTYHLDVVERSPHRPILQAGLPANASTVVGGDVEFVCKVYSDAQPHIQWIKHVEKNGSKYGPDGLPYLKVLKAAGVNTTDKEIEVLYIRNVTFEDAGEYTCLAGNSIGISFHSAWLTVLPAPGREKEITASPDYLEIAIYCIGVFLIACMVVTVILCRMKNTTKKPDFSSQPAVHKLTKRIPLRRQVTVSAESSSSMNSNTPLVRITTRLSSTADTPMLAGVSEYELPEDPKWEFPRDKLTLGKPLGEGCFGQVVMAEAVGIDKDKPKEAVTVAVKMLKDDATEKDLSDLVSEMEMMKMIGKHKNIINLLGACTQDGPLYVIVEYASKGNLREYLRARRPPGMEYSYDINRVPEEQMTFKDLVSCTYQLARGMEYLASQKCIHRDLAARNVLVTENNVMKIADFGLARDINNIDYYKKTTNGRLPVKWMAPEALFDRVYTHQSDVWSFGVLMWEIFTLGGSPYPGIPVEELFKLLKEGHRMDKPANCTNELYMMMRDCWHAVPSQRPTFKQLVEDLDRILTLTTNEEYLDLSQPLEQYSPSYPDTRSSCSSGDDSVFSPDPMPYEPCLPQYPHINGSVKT

T1 sequence (P11362 478-767 limits assumed): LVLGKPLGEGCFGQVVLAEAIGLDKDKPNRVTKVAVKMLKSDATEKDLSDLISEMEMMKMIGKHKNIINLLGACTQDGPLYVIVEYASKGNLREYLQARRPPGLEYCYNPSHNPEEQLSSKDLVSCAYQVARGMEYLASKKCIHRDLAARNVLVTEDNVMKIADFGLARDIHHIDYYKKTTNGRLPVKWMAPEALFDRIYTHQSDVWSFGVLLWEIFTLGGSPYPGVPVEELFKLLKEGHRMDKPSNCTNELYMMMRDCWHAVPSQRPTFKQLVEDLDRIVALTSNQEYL

IC50 (FGFR1): ~3.78 µM
IC50 (FGFR2): ~12.5 µM
SMILES: COc1cc(/C=C/C(=O)O)ccc1O [FA, 4-hydroxy-3-methoxycinnamic acid]
